Measured values taken from patent US5220042A, “1,4-benzoquinone derivatives and benzene derivatives, and process for preparing the same” (priority 1984, dated 1993).
Read-outs that look alike come from different tables or passages of the source.

Columns and labels:
Format in all cases: cell-based, guinea pig (Hartley strain)
[1] = target: T1, 5-lipoxygenase (Cavia porcellus, UniProt A0A286X958); test: 5-Lipoxygenase inhibitory activity (conversion of 14C-arachidonic acid to 5-HETE) in guinea pig peritoneal exudate cells; conditions: read-out: inhibition ratio (%) of 5-lipoxygenase activity; for inhibition at 0.3 µM: concentration 3 × 10^-7 M; for inhibition at 1 µM: concentration 10^-6 M; for inhibition at 0.1 µM: concentration 10^-7 M; for inhibition at 3 µM: concentration 3 × 10^-6 M; for inhibition at 10 µM: concentration 10^-5 M
T1 construct: endogenous in cells; host or cells: guinea pig (Hartley strain) casein-elicited peritoneal exudate cells, intact cell suspension
T1 sequence (A0A286X958 1-674): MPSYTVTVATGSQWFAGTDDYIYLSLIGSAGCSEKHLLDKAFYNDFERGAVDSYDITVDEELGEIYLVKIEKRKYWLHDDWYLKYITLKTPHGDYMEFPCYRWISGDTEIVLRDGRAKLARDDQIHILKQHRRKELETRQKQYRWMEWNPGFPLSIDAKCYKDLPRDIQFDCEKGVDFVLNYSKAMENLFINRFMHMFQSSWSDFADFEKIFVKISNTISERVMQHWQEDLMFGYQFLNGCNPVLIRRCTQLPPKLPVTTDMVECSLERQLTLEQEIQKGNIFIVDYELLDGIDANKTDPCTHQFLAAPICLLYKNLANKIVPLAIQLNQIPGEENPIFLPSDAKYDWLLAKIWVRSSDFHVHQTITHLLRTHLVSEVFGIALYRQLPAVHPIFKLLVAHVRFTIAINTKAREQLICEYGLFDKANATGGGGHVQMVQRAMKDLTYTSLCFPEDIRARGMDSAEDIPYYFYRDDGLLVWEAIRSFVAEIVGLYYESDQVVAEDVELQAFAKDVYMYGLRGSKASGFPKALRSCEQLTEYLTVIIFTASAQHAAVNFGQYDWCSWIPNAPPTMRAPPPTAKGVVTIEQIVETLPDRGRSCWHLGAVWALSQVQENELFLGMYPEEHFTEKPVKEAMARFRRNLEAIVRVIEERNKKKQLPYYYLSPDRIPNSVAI
Procedure: 5-Lipoxygenase inhibitory activity of the present compounds was determined by a method according to procedures described in "J. Biol. Chem., Vol. 256, pages 4156-4159, (1981, Ibid. Vol. 258, pages 5754-5758 (1983).
(1) Preparation of Test Cells
A guinea pig (Hartley strain) (500-650 g body weight) was intraperitoneally administered with 2%-casein solution in 3/50 the volume of body weight. 14 Hours after the administration, the animal was sacrificed by bleeding and the peritoneal cavity was washed with Dulbecco's phosphate buffered saline (PBS) containing 3 U/ml of heparin and the exudate cells were harvested. The sample of cells was washed twice with Dulbecco's PBS (-), then the cells were suspended in Dulbecco's PBS (-), containing 1 mM of calcium chloride and 5.5 mM of glucose, so as to make a suspension having the concentration of 2.5×10^7 cells/ml.
To 0.2 ml of the above-mentioned cell suspension was added 10^-5 M of Indomethacine, and incubated at 30° C. for 2 minutes. Each of the appropriate concentrations of test compounds was added to the suspension respectively, further incubated for 2 minutes. Next, 10 μm of Ionophore A23187 (manufactured by Calbiochem-Behring, San Diego, Calif., U. S. A) was added to the suspension, further, 10 μm of ^14 C-arachidonic acid (manufactured by Amersham Japan, Ltd., Tokyo, Japan) was added and initiated the reaction. 3 Minutes after the initiation of the reaction, 0.1 ml of 0.2M-citric acid was added so as to terminate the reaction. 1.2 Milliliters of ethyl acetate was added to the reaction mixture and shaked for 5 minutes. The reaction mixture was centrifuged at 3,000 rpm for 5 minutes so as to separate the organic layer from the aqueous layer. 1 Milliliter of the organic layer (the upper layer) was dehydrated by passing through a mini-column packed with anhydrous sodium sulfate. The dehydrated organic layer was dried under nitrogen gas stream. The residue obtained was dissolved in ethyl acetate, and the total amount of the ethyl acetate solution was spotted onto thin layer chromochromatography (TCL) plate (Art. 11845 manufactured by E. Merck A. G.). The TCL was carried out with a mixed solvent of diethyl ether:petroleum:ether:acetic acid (50:50:1 volume/volume), then the radioactive metabolites on the plate were detected by using "Ultrafilm ^3 H" (a trademark for a X-ray film, manufactured by LKB Co.). Each fractions corresponding to the metabolites was scraped in to a scintillation vial, and 5 ml of "Scintilator ACS-II" (manufactured by Amersham Japan, Ltd.), was added then the radio-activity was determined by means of a liquid scintillation counter.

[2] = tested on: SRS-A release from lung fragments; test: Inhibition of SRS-A release from sensitized guinea pig lung fragments; conditions: Cavia porcellus
Procedure: (§1) Inhibitory activities on the release of SRS-A and histamine of the present compounds were determined.
(§2) A male guinea pig (Hartley strain) (body weight: about 300 g) was sensitized by a method according to P. Anderson: "Int. Archs. Allergey appln. Immunol., Vol. 64, pages 249-258 (1981). Thus, 30 mg/kg of cyclophosphamide was intraperitoneally administered to the guinea pig, and 2 days after 1 microgram of ovalbumin (manufactured by Sigma Chemical Co., St. Louis, Mo. U. S. A.) together with 10 mg of aluminium hydroxide gel were intraperitoneally administered so as to have the animal sesitized.
(§3) 50 Days after the sesitization, the animal was killed by exsanguination, and the lung was isolated from the animal and was perfused with 20 ml of Tyrode's solution, then immersed in an ice-cooled Tyrode's solution. The parenchyma of the lung was cut by using McIlwain-type tissue chopper to make it into fragments of lung having 2 mm square and the fragments were washed with Tyrode's solution. 400 Milligrams of sectiles of lung were suspended in 3.6 ml of Tyrode's solution, and this suspension was preincubated at 37° C. for 5 minutes, then 4 microliters of dimethyl sulfoxide solution of the test compound, in the case of control 4 microliters of dimethyl sulfoxide alone was added to the suspension. 5 Minutes after, 0.4 ml of 100 micrograms/ml of ovalbumin solution added so as to release SRS-A for 10 minutes. The suspension was ice-cooled and filtered through gauze, the filtrate was centrifuged at 2,000 rpm for 10 minutes and the supernatant was collected. The supernatant was stored in freezed state at -80° C. until bio-assay was conducted.
(§4) Amounts of SRS-A and histamine contained in the supernatant were determined by bio-assay using ileum of guinea pig.
(§5) A piece of the ileum (2-3 cm of length) positioned from 15-25 cm from the opening portion of ileocecum was isolated from a male guinea pig (Hartley strain) (body weight: 400-600 g) which was fasted for 24 hours. The piece of ileum was hanged vertically in a Magnus tube which was filled with 10 ml of Tyrode's solution containing 10^-7 M of atropine sulfate under air stream conditions. The isotonic contraction of the piece of the ileum was measured at 0.5 g of load by using an isotonic transducer "TD-112S" (manufactured by Nihon Koden Co., Ltd.). The measurements were carried out after the reaction to histamine of the piece of ileum was kept constant. Bioassay of histamine was measured by using the value of contraction shown in 30 seconds after the addition of the supernatant. Bioassay of on SRS-A was measured by using the value of contraction shown at 2 minutes after the addition of the supernatant in the presence of 10^-6 M of pyrilamine (manufactured by Sigma Chemical Co.), and compared with the standard curve of crude SRS-A released from the fragments of the lung.

[3] = tested on: histamine release from lung fragments; test: Inhibition of histamine release from sensitized guinea pig lung fragments; conditions: Cavia porcellus, read-out: Inhibition ratio (%) Histamine; for inhibition at 3 µM: Table 2, dose 3 μM; for inhibition at 30 µM: Table 2, dose 30 μM
Procedure: as §1, §2, §3, §4, §5

[4] = Table 2, dose 3 μM, read-out: Inhibition ratio (%) SRS-A
[5] = Table 2, dose 30 μM, read-out: Inhibition ratio (%) SRS-A
[6] = Table 2B, 3 μM, read-out: Inhibitory activities on SRS-A (%)
[7] = Table 2B, 30 μM, read-out: Inhibitory activities on SRS-A (%)

inhibition at 0.3 µM [1] [%]	inhibition at 1 µM [1] [%]	inhibition at 0.1 µM [1] [%]	inhibition at 3 µM [1] [%]	inhibition at 10 µM [1] [%]	Structure (SMILES)	inhibition at 3 µM [2, 4] [%]	inhibition at 30 µM [2, 5] [%]	inhibition at 3 µM [3] [%]	inhibition at 30 µM [3] [%]	inhibition at 3 µM [2, 6] [%]	inhibition at 30 µM [2, 7] [%]
33	53	17			COC1=CC(=O)C(OC)=C(CCCCCC2=C(OC)C(=O)C(C)=C(OC)C2=O)C1=O [Test Compound No. 18, 2,5-Dimethoxy-3-methyl-6-[5-(2,5-dimethoxy-1,4-benzoquinon-3-yl)pentyl]-1,4-benzoquinone]	62.9	91.9	14.4	8.3		
78	89	34			COC1=CC(=O)C(OC)=C(CCCCCCCCCCC2=C(OC)C(=O)C=C(OC)C2=O)C1=O [Test Compound No. 14, 2,2'-Decamethylenebis(3,6-dimethoxy-1,4-benzoquinone)]	4.5	29.2	-12.6	-23.5		
26	37		73	89	CCCC/C=C\CCCCCCCC1=C(OC)C(=O)C=C(OC)C1=O [Test Compound No. 34, 2,5-Dimethoxy-3-(Z-8-tridecenyl)-1,4-benzoquinone]					3.2	0.8
58	81	17			COC1=CC(=O)C(OC)=C(CCCCCCC2=C(OC)C(=O)C=C(OC)C2=O)C1=O [Test Compound No. 10, 2,2'-Hexamethylenebis(3,6-dimethoxy-1,4-benzoquinone)]	73.4	> 95.2	20.6	22.4		
36	56		80	87	CCCCC#CCCCCCCCCCC1=C(OC)C(=O)C=C(OC)C1=O [Test Compound No. 32, 2,5-Dimethoxy-3-(10-pentadecynyl)-1,4-benzoquinone]					12.4	26
43	73		91	93	CCCCC#CCCCCCCCC1=C(OC)C(=O)C=C(OC)C1=O [compound 31]					17	37.7
74	87	48			COC1=C(CCO)C(=O)C(OC)=C(CCCCCC2=C(OC)C(=O)C(CCO)=C(OC)C2=O)C1=O [Test Compound No. 19, 5,5'-Pentamethylenebis[2-(2-hydroxyethyl)-3,6-dimethoxy-1,4-benzoquinone]]	40.6	76.6			40.6	76.6
37	77	5			COC1=CC(=O)C(OC)=C(CCCCCCCCCCCCC2=C(OC)C(=O)C=C(OC)C2=O)C1=O [Test Compound No. 15, 2,2'-Dodecamethylenebis(3,6-dimethoxy-1,4-benzoquinone)]	3.4	3.8	-10.4	-16		
64	88	44			COC1=CC(=O)C(OC)=C(CCCCCCCC2=C(OC)C(=O)C=C(OC)C2=O)C1=O [Test Compound No. 11, 2,2'-Heptamethylenebis(3,6-dimethoxy-1,4-benzoquinone)]	32.5	85.7	-8.4	-3.6	32.5	85.7
72	87	36			COC1=CC(=O)C(OC)=C(CCCCCCCCC2=C(OC)C(=O)C=C(OC)C2=O)C1=O [Test Compound No. 12, 2,2'-Octamethylenebis(3,6-dimethoxy-1,4-benzoquinone)]	26.9	71.7	2.4	-2.2		
